# Data reported in publication PMC7044277 (Nature Communications, 2020).
# “And” between values parts separate entries of the source, which are not always exact repeats. Equal values may be shown once.
# What was measured:
# DRD4 (D4.4 variant) [1] = target: T1, DRD4 (D4.4 variant) (Homo sapiens, UniProt P21917); test: β-arrestin2 recruitment (Tango); type: cell-based
# T1 sequence (P21917 1-419): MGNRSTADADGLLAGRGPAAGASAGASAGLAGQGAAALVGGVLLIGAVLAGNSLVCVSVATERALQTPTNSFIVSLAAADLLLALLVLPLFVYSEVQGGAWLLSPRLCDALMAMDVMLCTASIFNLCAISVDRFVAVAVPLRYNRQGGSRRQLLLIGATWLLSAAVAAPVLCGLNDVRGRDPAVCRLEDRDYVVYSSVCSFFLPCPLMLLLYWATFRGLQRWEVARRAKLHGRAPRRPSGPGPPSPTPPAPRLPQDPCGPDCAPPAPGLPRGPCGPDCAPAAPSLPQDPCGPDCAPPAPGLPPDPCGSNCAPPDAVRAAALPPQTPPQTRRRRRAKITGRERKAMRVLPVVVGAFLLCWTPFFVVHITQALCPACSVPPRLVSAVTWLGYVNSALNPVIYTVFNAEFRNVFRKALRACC
# DRD2 F1103.28A = DRD2 F1103.28A (Homo sapiens, UniProt P14416, F110A); test: β-arrestin2 recruitment (Tango), mutant; type: cell-based; parameters: expressed in transfected cells; host or cells: HEK293T (ATCC CRL-11268)
# Sequence of DRD2 F1103.28A (P14416 whole entry F110A): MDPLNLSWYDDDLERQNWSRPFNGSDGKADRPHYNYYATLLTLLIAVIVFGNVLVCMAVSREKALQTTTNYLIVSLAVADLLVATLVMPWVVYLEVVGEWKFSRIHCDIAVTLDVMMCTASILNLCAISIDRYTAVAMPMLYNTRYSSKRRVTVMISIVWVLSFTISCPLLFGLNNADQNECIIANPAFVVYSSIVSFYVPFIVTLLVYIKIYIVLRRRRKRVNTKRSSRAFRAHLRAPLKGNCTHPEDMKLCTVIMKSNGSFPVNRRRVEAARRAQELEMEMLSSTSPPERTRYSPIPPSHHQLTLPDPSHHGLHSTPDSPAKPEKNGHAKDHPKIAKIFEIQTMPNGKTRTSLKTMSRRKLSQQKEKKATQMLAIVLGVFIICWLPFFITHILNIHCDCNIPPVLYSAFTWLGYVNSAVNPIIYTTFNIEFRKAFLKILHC
# DRD2 (D2 long receptor) = DRD2 (D2 long receptor) (Homo sapiens, UniProt P14416); test: β-arrestin2 recruitment (Tango), HTLA cells; type: cell-based; details: for response, concentration-response data point (replicates): Fig_S10a, drug alone
# Sequence of DRD2 (D2 long receptor) (P14416 whole entry): as the sequence (P14416 whole entry F110A) above, with A110F counted along it
# [2] = tested on: serotonin receptor of Fig_S10i (subtype not given); test: β-arrestin2 recruitment (Tango), agonist activity, source data Fig_S10i; type: cell-based, human; details: drug alone
# DRD4 (D4.4 variant) [3] = target: T1, DRD4 (D4.4 variant); test: Gαi/o-mediated cAMP inhibition (GloSensor); type: cell-based; details: DRD4; agonist, cAMP inhibition; read-out: EC50 ± SEM
# [4] = tested on: serotonin receptor (subtype not given; reference agonist serotonin); test: β-arrestin2 recruitment (Tango), agonist activity, source data Fig_S10m; type: cell-based, human; details: drug alone
# DRD2 F1103.28L = target: T2, DRD2 F1103.28L (Homo sapiens, UniProt P14416, F110L); test: Gαi/o-mediated cAMP inhibition (GloSensor), mutant; type: cell-based; details: DRD2 F1103.28L (b138 head prints DRD2 F1063.28L)
# T2 construct: expressed in transfected cells; host or cells: HEK293T (ATCC CRL-11268)
# T2 sequence (P14416 whole entry F110L): as the sequence (P14416 whole entry F110A) above, with A110L counted along it
# DRD3 wild-type = DRD3 wild-type (Homo sapiens, UniProt P35462); test: Radioligand competition binding, [3H]-N-methylspiperone; details: DRD3; [3H]-methylspiperone (0.8-1.0 nM); read-out: Ki
# Sequence of DRD3 wild-type (P35462 whole entry): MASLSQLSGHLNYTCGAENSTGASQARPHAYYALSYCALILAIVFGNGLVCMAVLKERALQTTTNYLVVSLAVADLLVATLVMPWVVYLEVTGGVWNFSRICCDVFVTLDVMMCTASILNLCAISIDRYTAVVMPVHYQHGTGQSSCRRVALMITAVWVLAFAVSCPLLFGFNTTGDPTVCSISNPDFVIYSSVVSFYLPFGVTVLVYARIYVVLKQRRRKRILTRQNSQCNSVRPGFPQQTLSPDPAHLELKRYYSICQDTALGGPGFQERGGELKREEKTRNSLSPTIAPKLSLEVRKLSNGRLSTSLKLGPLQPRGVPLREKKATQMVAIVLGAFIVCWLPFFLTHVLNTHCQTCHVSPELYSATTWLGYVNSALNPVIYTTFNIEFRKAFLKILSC
compound,measurement,setting,value
CCOc1cccc2cc([C@H](C)NCC3(O)CCCCC3)oc12 [O4SE6],"β-arrestin2 recruitment response at DRD4 (source data, replicate values)",DRD4 (D4.4 variant) [1]; Log[Drug] -9.52,1.007 and 1.419 and 7.892 and -0.8689 and -1.296 and 0.8476 and 1.4149 and 0.894 and 0.2094
same,"β-arrestin2 recruitment response at DRD4 (source data, replicate values)",DRD4 (D4.4 variant) [1]; Log[Drug] -10,1.797 and 0.7921 and 2.561 and -1.944 and -1.43 and -2.445 and 0.6793 and 0.5811 (2×)
same,"β-arrestin2 recruitment response at DRD4 (source data, replicate values)",DRD4 (D4.4 variant) [1]; Log[Drug] -10.52,1.808 and 0.4319 and 2.3763 and 1.191 and 0.9847 and -1.294 and 0.1099 and -0.2474 and -0.3547
same,"β-arrestin2 recruitment response at DRD4 (source data, replicate values)",DRD4 (D4.4 variant) [1]; Log[Drug] -11,0.1559 and 1.383 and -0.06631 and 0.9882 and -1.444 and -1.642 and 1.271 and -0.5746 and 1.065
same,"β-arrestin2 recruitment response at DRD4 (source data, replicate values)",DRD4 (D4.4 variant) [1]; Log[Drug] -11.52,-0.1308 and 0.7778 and 1.385 and -1.934 and -1.503 and -0.7069 and -0.466 and 1.013 and -1.209
same,EC50,DRD2 F1103.28A,> 10 µM
same,β-arrestin2 recruitment agonist activity,"DRD2 (D2 long receptor); DRD2, Tango",selective DRD2 agonist
same,EC50,"DRD2 (D2 long receptor); DRD2, β-arrestin2 recruitment (Tango), read-out: EC50 ± SEM",1.05 µM
same,"response, concentration-response data point (replicates)",DRD2 (D2 long receptor); Log[Drug] -5,73.5777 and 57.7969 and 60.7943 and 65.7822 and 71.9755 and 71.4753 and 62.0106
same,"response, concentration-response data point (replicates)",DRD2 (D2 long receptor); Log[Drug] -5.52,50.6787 and 47.7474 and 41.401 and 56.0167 and 52.8546 and 51.367 and 55.6817
same,"response, concentration-response data point (replicates)",DRD2 (D2 long receptor); Log[Drug] -6,39.3966 and 41.1099 and 37.2084 and 41.7585 and 38.5021 and 38.079 and 42.2149
same,"response, concentration-response data point (replicates)",DRD2 (D2 long receptor); Log[Drug] -6.52,17.548 and 17.9218 and 22.2395 and 30.2893 and 22.7451 and 19.4102 and 21.7916
same,"response, concentration-response data point (replicates)",DRD2 (D2 long receptor); Log[Drug] -7,9.564 and 7.739 and 7.708 and 7.415 and 7.649 and 7.113 and 9.501
same,"response, concentration-response data point (replicates)",DRD2 (D2 long receptor); Log[Drug] -7.52,5.75 and 5.841 and 5.282 and 5.619 and 6.782 and 5.749 and 5.8801
same,"response, concentration-response data point (replicates)",DRD2 (D2 long receptor); Log[Drug] -8,5.434 and 5.45 and 5.389 and 5.042 and 5.329 and 5.148 and 5.345
same,"response, concentration-response data point (replicates)",DRD2 (D2 long receptor); Log[Drug] -8.52,5.277 and 5.01 and 4.9419 and 4.98 and 5.0858 and 5.308 and 5.178
same,"response, concentration-response data point (replicates)",DRD2 (D2 long receptor); Log[Drug] -9,5.4097 and 5.385 and 5.128 and 4.863 and 4.947 and 4.805 and 4.8829
same,"response, concentration-response data point (replicates)",DRD2 (D2 long receptor); Log[Drug] -9.52,5.139 and 4.887
same,"response, concentration-response data point (replicates)",DRD2 (D2 long receptor); Log[Drug] -10,5.431 and 4.786 and 4.659 and 4.856 and 4.756 and 4.79 and 4.8682
same,"response, concentration-response data point (replicates)",DRD2 (D2 long receptor); Log[Drug] -10.52,5.022 and 4.798 and 4.776 and 4.763 and 4.86 and 4.945 and 4.841
same,"response, concentration-response data point (replicates)",DRD2 (D2 long receptor); Log[Drug] -11,4.915 and 4.765 and 4.615 and 4.7302 and 4.774 and 4.749 and 4.971
same,"response, concentration-response data point (replicates)",DRD2 (D2 long receptor); Log[Drug] -11.52,4.946 and 4.662 and 4.627 and 4.695 and 4.751 and 4.656 and 4.732
same,"response, concentration-response data point (replicates)",DRD2 (D2 long receptor); Log[Drug] -12,4.887 and 4.582 and 4.674 and 4.754 and 4.726 and 4.751 and 4.811
same,Emax,"DRD2 (D2 long receptor); HTLA, read-out: Emax relative to quinpirole response, DRD2, Tango",71.3%
same,"β-arrestin2 recruitment response at DRD2 (source data, replicate values)",DRD2 (D2 long receptor); Log[Drug] -6,82.8973
same,"β-arrestin2 recruitment response at DRD2 (source data, replicate values)",DRD2 (D2 long receptor); Log[Drug] -6.52,72.8482 and 85.473 and 74.6038 and 82.6009 and 103.942 and 82.378 and 70.1593 and 68.4699 and 74.397
same,"β-arrestin2 recruitment response at DRD2 (source data, replicate values)",DRD2 (D2 long receptor); Log[Drug] -7,71.4846 and 69.3009 and 62.1089 and 68.8602 and 55.9009 and 59.7861 and 54.6819 and 54.8285 and 54.3284
same,"β-arrestin2 recruitment response at DRD2 (source data, replicate values)",DRD2 (D2 long receptor); Log[Drug] -7.52,50.7715 and 50.9759 and 58.0792 and 57.6214 and 43.2407 and 45.9376 and 55.9749 and 62.7315 and 56.5853
same,"β-arrestin2 recruitment response at DRD2 (source data, replicate values)",DRD2 (D2 long receptor); Log[Drug] -8,39.7841 and 36.3747 and 29.4664 and 31.1292 and 29.8397 and 30.2988 and 27.2382 and 26.622 and 26.0732
same,"β-arrestin2 recruitment response at DRD2 (source data, replicate values)",DRD2 (D2 long receptor); Log[Drug] -8.52,13.2168 and 14.3867 and 13.161 and 13.9303 and 10.9069 and 10.856 and 10.5462 and 11.4912 and 11.2421
same,"β-arrestin2 recruitment response at DRD2 (source data, replicate values)",DRD2 (D2 long receptor); Log[Drug] -9,7.123 and 6.617 and 6.837 and 5.043 and 6.064 and 6.895 and 5.588 and 6.122 and 5.826
same,"β-arrestin2 recruitment response at DRD2 (source data, replicate values)",DRD2 (D2 long receptor); Log[Drug] -9.52,5.908 and 5.15 and 5.772 and 5.0023 and 4.872 and 4.927 and 5.017 and 5.057 and 5.0924
same,"β-arrestin2 recruitment response at DRD2 (source data, replicate values)",DRD2 (D2 long receptor); Log[Drug] -10,5.347 and 5.121 and 5.289 and 4.982 and 4.774 and 4.763 and 4.918 and 4.901 and 4.8503
same,"β-arrestin2 recruitment response at DRD2 (source data, replicate values)",DRD2 (D2 long receptor); Log[Drug] -10.52,5.092 and 5.033 and 5.133 and 4.671 and 4.683 and 4.718 and 4.817 and 4.868 and 4.747
same,"β-arrestin2 recruitment response at DRD2 (source data, replicate values)",DRD2 (D2 long receptor); Log[Drug] -11,5.0524 and 5.024 and 4.843 and 4.786 and 4.868 and 4.603 and 4.715 and 4.851 and 5.108
same,"β-arrestin2 recruitment response at DRD2 (source data, replicate values)",DRD2 (D2 long receptor); Log[Drug] -11.52,4.975 and 5.004 and 4.993 and 4.845 and 4.81 and 4.615 and 4.945 and 4.7318 and 4.6555
same,"response, single replicates of the concentration-response curve",[2]; Log[Drug] -11.52,-11.574 and -4.3 and 8.5185 and 5.043 and 17.6989 and -6.28 and -5.544 and 6.734 and -5.212
same,"response, single replicates of the concentration-response curve",[2]; Log[Drug] -12,-1.958 and 0.9753 and 5.65 and 9.245 and 10.4038 and -4.648 and 6.652 and -2.743 and 7.282
same,EC50,DRD4 (D4.4 variant) [3],> 10 µM
same,"response, Fig_S10m, replicate values",[4]; Log[Drug] -10,-3 and -0.8547 and -1.711 and 1.274 and 0.6519 and 0.6372 and 3.446 and 2.684 and 1.5611
same,"response, Fig_S10m, replicate values",[4]; Log[Drug] -10.52,-1.057 and 0.5825 and 1.112 and 0.2883 and -0.05325 and 2.637 and -1.4637 and 2.006 and 9.099
same,"response, Fig_S10m, replicate values",[4]; Log[Drug] -11,-3.4971 and -1.766 and 0.3518 and 1.196 and 0.9733 and 1.78 and -2.611 and -3.973 and 1.645
same,"response, Fig_S10m, replicate values",[4]; Log[Drug] -11.52,-2.165 and -1.698 and -2.094 and 0.786 and 2.079 and 0.9742 and -3.099 and -0.8266 and -0.3396
same,"response, Fig_S10m, replicate values",[4]; Log[Drug] -12,0.1375 and -0.9459 and 1.244 and -0.4049 and 1.325 and 0.3957 and -1.831 and -2.73 and 1.919
same,EC50,DRD2 F1103.28L,> 10 µM
same,Ki,DRD3 wild-type,0.81 µM
